Data as given in patent US10519140B2, “Indolin-2-one derivatives” (Hoffmann-La Roche Inc., priority 2015, dated 2019).

These molecules were tested on L-687,414-induced hyperlocomotion (assay: L-687,414-induced hyperlocomotion). Settings: Mus musculus; mice; dose 30 mg/kg ip, 15 min before 50 mg/kg s.c. L-687,414.
Assay type: in vivo
Source text: The authors described that hyperlocomotion induced by L-687,414 was inhibited by a series of known antipsychotic drugs. […] These findings predict antipsychotic activity for the present compounds, making them useful for the treatment of positive (psychosis) and negative symptoms of schizophrenia, substance abuse, alcohol and drug addiction, obsessive-compulsive disorders, cognitive impairment, bipolar disorders, mood disorders, major depression, resistant depression, anxiety disorders, Alzheimer's disease, autism, Parkinson's disease, chronic pain, borderline personality disorder, sleep disturbances, chronic fatigue syndrome, stiffness, antiinflammatory effects in arthritis and balance problems, and treatment of epilepsy and neurodevelopmental disorders with co-morbid epilepsy.
The described compounds of formula I reduce L-687,414-induced hyperlocomotion. This was assessed by using a computerized Digiscan 16 Animal Activity Monitoring System (Omnitech Electronics, Columbus, Ohio) to quantify locomotor activity. Animals were kept under a 12 h light/dark cycle and experiments were performed during the light period. Each activity monitoring chamber consisted of a Plexiglas box (41×41×28 cm; W×L×H) with sawdust bedding on the floor surrounded by invisible horizontal and vertical infrared sensor beams. The test boxes were divided by a Plexiglas cross providing each mouse with 20×20 cm of moving space. Cages were connected to a Digiscan Analyzer linked to a computer that constantly collected the beam status information. Records of photocell beam interruptions for individual animals were taken every 5 min over the duration of the experimental session and the sum of the first 6 periods was used as the final parameter. At least 8 mice were used in each treatment group. Compounds were administered i.p. 15 min before a s.c. injection of 50 mg/kg of L-687,414. Mice were then transferred from their home cage to the recording chambers for a 15-min habituation phase allowing free exploration of the new environment. Horizontal activity was then recorded for a 30-min time period. The % inhibition of L-687,414-induced hyperlocomotion was calculated according to the equation: ((Veh+L-687,414 horizontal activity−drug+L-687,414 horizontal activity)/Veh+L−687,414 horizontal activity)×100
ID50 values, defined as doses of each compound producing 50% inhibition of L-687,414-induced hyperlocomotion, were calculated by linear regression analysis of a dose-response data using an Excel-based computer-fitting program.
As data was not presupposed to be normally distributed, groups treated with test compounds were statistically compared with the control (vehicle-treated) group using one-tailed Mann Whitney U tests. In statistics, the Mann-Whitney Utest (also called the Mann-Whitney-Wilcoxon (MWW) or Wilcoxon rank-sum test) is a non-parametric statistical hypothesis test for assessing whether one of two samples of independent observations tends to have larger values than the other. It is one of the most well-known non-parametric significance tests. […] P values given in table 1 are one-tailed since only decreases in locomotion were expected and tested for (Mann, H. B., Whitney, D. R. (1947), “On a Test of Whether one of Two Random Variables is Stochastically Larger than the Other”, Annals of Mathematical Statistics, 18 (1), 50-60).
Work on `Cc1ncc(-c2ccc3c(c2)N(c2cnc4c(c2)C(C)(C)C(=O)N4C)C(=O)C3(C)C)cn1` [Example 54, 5-(3,3-Dimethyl-6-(2-methylpyrimidin-5-yl)-2-oxoindolin-1-yl)-1,3,3-trimethyl-1H-pyrrolo[2,3-b]pyridin-2(3H)-one] yielded an inhibition in vivo at 30 mg/kg of 93.5%. `Cc1ncc(-c2ccc3c(c2)N(c2cnc(-n4ccnc4C)cn2)C(=O)C3(C)C)cn1` [Example 50, 3,3-Dimethyl-1-(5-(2-methyl-1H-imidazol-1-yl)pyrazin-2-yl)-6-(2-methylpyrimidin-5-yl)indolin-2-one] showed an inhibition in vivo at 30 mg/kg of 96.3%. In the case of `Cc1ncc(-c2ccc3c(c2)N(c2cncc(N4CCCC4=O)n2)C(=O)C3(C)C)cn1` [Example 3, 3,3-Dimethyl-6-(2-methylpyrimidin-5-yl)-1-(6-(2-oxopyrrolidin-1-yl)pyrazin-2-yl)indolin-2-one], the inhibition in vivo at 30 mg/kg was 87.8%. `Cc1ncc(-c2ccc3c(c2)N(c2cnc(C)c(N4CCOC4=O)n2)C(=O)C3(C)C)cn1` [Example 20, 3-(6-(3,3-Dimethyl-6-(2-methylpyrimidin-5-yl)-2-oxoindolin-1-yl)-3-methylpyrazin-2-yl)oxazolidin-2-one] gave an inhibition in vivo at 30 mg/kg of 89.7%. `Cc1ncc(-c2ccc3c(c2)N(c2ccc4c(n2)N(C)C(=O)C4(C)C)C(=O)C3(C)C)cn1` [Example 39, 6-(3,3-Dimethyl-6-(2-methylpyrimidin-5-yl)-2-oxoindolin-1-yl)-1,3,3-trimethyl-1H-pyrrolo[2,3-b]pyridin-2(3H)-one] was tested, and the inhibition in vivo at 30 mg/kg was 99.5%. `Cc1ncc(-c2ccc3c(c2)N(c2cncc(N4CCOCC4)n2)C(=O)C3(C)C)cn1` [Example 1, 3,3-Dimethyl-6-(2-methylpyrimidin-5-yl)-1-(6-morpholinopyrazin-2-yl)indolin-2-one] was tested, and the inhibition in vivo at 30 mg/kg was 90%. Molecule `Cc1ncc(-c2ccc3c(c2)N(c2cncc(N4CCOC4=O)n2)C(=O)C3(C)C)cn1` [Example 15, 3-(6-(3,3-Dimethyl-6-(2-methylpyrimidin-5-yl)-2-oxoindolin-1-yl)pyrazin-2-yl)oxazolidin-2-one] has an inhibition in vivo at 30 mg/kg of 87.1%. In the case of `Cc1ncc(-c2ccc3c(c2)N(c2cnc(C)c(N4CCOCC4)n2)C(=O)C3(C)C)cn1` [Example 18, 3,3-Dimethyl-1-(5-methyl-6-morpholinopyrazin-2-yl)-6-(2-methylpyrimidin-5-yl)indolin-2-one], the inhibition in vivo at 30 mg/kg was 88.8%.
